In publication PMC4726048 (2016):

Columns and labels:
[1] = tested on: 5'-side loop, 5'-G3TnG3T3G3T3G3-3', n = 15 (DNA, G4) GGGTTTTTTTTTTTTTTTGGGTTTGGGTTTGGG; experiment: luminescence enhancement; conditions: 1 μM compound; 6.9-fold enhancement
[2] = tested on: 5'-side loop, 5'-G3TnG3T3G3T3G3-3', n = 1 (DNA, G4) GGGTGGGTTTGGGTTTGGG; experiment: luminescence enhancement; conditions: 1 μM compound; 2.7-fold enhancement
[3] = tested on: central loop, 5'-G3T3G3TnG3T3G3-3', n = 15 (DNA, G4) GGGTTTGGGTTTTTTTTTTTTTTTGGGTTTGGG; experiment: luminescence enhancement; conditions: 1 μM compound; 8.3-fold enhancement
[4] = tested on: F21T (DNA, G4) GGGTTAGGGTTAGGGTTAGGG; experiment: FRET melting; conditions: 0.2 μM DNA; 3 μM compound
[5] = tested on: CCR5-DEL (DNA, single strand) CTCATTTTCCATACATTAAAGATAGTCAT; experiment: luminescence enhancement; conditions: 20 mM Tris-HCl pH 7.4; 1 μM compound, 5 μM DNA
[6] = tested on: ON2 (DNA, G4) GGGTTTGGGACTCCCCCAGGTGGGTTTGGG; experiment: G4-FID (thiazole orange displacement); conditions: Tris-HCl buffer; thiazole orange displaced; 0.25 μM DNA
[7] = tested on: 3'-side loop, 5'-G3T3G3T3G3TnG3-3', n = 15 (DNA, G4) GGGTTTGGGTTTGGGTTTTTTTTTTTTTTTGGG; experiment: luminescence enhancement; conditions: 1 μM compound; 7.2-fold enhancement
[8] = tested on: 3'-side loop, 5'-G3T3G3T3G3TnG3-3', n = 1 (DNA, G4) GGGTTTGGGTTTGGGTGGG; experiment: luminescence enhancement; conditions: 1 μM compound; 2.3-fold enhancement
[9] = tested on: ON2m (DNA, single strand) AAGTTTCCGACTCCCCCAGGTGCCTTTGAA; experiment: luminescence enhancement; conditions: ON2m used in place of ON2 in adenosine assay; 80 μM adenosine
[10] = tested on: ds17 (DNA, duplex) CCAGTTCGTAGTAACCC/GGGTTACTACGAACTGG; experiment: G4-FID (thiazole orange displacement); conditions: Tris-HCl buffer; thiazole orange displaced; 0.25 μM DNA; under 50% displaced at highest concentration tested
[11] = tested on: central loop, 5'-G3T3G3TnG3T3G3-3', n = 1 (DNA, G4) GGGTTTGGGTGGGTTTGGG; experiment: luminescence enhancement; conditions: 1 μM compound; 2.4-fold enhancement
[12] = tested on: F10T (DNA, hairpin, HEG linker between nt 8 and 9) TATAGCTATATAGCTATAT; experiment: FRET melting; conditions: 0.2 μM DNA; 3 μM compound
[13] = tested on: ON1 (adenosine aptamer) (DNA, aptamer) ACCTGGGGGAGTATTGCGGAGGAAGGT; experiment: luminescence displacement assay (complex 1/ON1/ON2); conditions: 100 mM NaCl, 10 mM MgCl2, 75 mM K+, 20 mM Tris-HCl pH 7.4, 37 °C
[14] = ON2 capture strand, 200 μM highest tested

**Q.** For `Cc1cccnc1-c1[c-]cccc1.Cc1cccnc1-c1[c-]cccc1.[Ir+3].c1ccc(-c2ccc3ccc4ccc(-c5ccccc5)nc4c3n2)cc1`, which binding [1] is on record?
**A.** Its binding is “yes”.

**Q.** And the binding [2]?
**A.** Its binding is “yes”.

**Q.** And the binding [3]?
**A.** The binding was “yes”.

**Q.** What about the ΔTm [4] of the same compound?
**A.** The ΔTm was ~ 7.0 °C.

**Q.** What about the binding [5] of the same compound?
**A.** Its binding is “weak”.

**Q.** And the G4DC50 [6]?
**A.** Its G4DC50 is 7.0 µM.

**Q.** What about the binding [7] of the same compound?
**A.** Its binding is “yes”.

**Q.** What about the binding [8] of the same compound?
**A.** The binding was “yes”.

**Q.** What about the binding [9] of the same compound?
**A.** The binding was “weak”.

**Q.** What about the binding [10] of the same compound?
**A.** The binding was “weak”.

**Q.** What about the binding [11] of the same compound?
**A.** The binding was “yes”.

**Q.** What about the ΔTm [12] of the same compound?
**A.** Its ΔTm is 3.0 °C.

**Q.** `Nc1ccn([C@@H]2O[C@H](CO)[C@@H](O)[C@H]2O)c(=O)n1` was tested. Which binding [13, 14] did it give?
**A.** Its binding is “no”.

**Q.** For `Nc1nc2c(ncn2[C@@H]2O[C@H](CO)[C@@H](O)[C@H]2O)c(=O)[nH]1`, which binding [13, 14] is on record?
**A.** Its binding is “no”.

**Q.** How did the binding ([13]; ON2 capture strand displaced) turn out when `Nc1ncnc2c1ncn2[C@@H]1O[C@H](CO)[C@@H](O)[C@H]1O` was run?
**A.** The binding was “yes”.

**Q.** Which binding [13, 14] does the source give for `O=c1ccn([C@@H]2O[C@H](CO)[C@@H](O)[C@H]2O)c(=O)[nH]1` here?
**A.** Its binding is “no”.
